# From US20030049600A1, “STEALTH VIRUS DETECTION IN THE CHRONIC FATIGUE SYNDROME” (priority 1991, published 2003)
# System: fibroblasts
# Assay: Toxic effect on cultured fibroblasts, mimic of stealth virus culture toxicity
# Format: cell-based
# Details: 5 nM
# Source text: A lack of regular refeeding of the cultures can result in a tendency for the CPE to abort and not to progress. This effect is not seen with CMV infected cultures. In unfed stealth virus cultures and even with regular refeeding, one can observe a toxic effect on many of the remaining cells. Culture cells appear to lose a degree of vitality and become duller in appearance compared to control cultures. The fibroblasts can assume somewhat of a pavement appearance, instead of the elongated shape.
smiles,measurement,value
C=C1[C@@H](O)[C@@H]2O[C@]3(CC[C@H](/C=C/[C@@H](C)[C@@H]4CC(C)=C[C@@]5(O[C@H](C[C@@](C)(O)C(=O)O)CC[C@H]5O)O4)O3)CC[C@H]2O[C@@H]1[C@@H](O)C[C@H](C)[C@H]1O[C@@]2(CCCCO2)CC[C@H]1C [okadaic acid],"toxic effect on culture cells (loss of vitality, duller, pavement appearance)",Some of these changes can be mimicked
